What was measured:
Assay type in all cases: cell-based, canine
catalase (CAT) [1] = assay: Enzymatic activity of catalase in treated cbTCC cells (Cayman kit, Purpald); conditions: 24 hours, mean ± standard deviation, control 11.20 ± 0.43
Method: Treatments were done in at least triplicates. […] The enzymatic activity of catalase was determined using assay kits from Cayman Chemical Co., Ann Arbor, Mich., according to manufacturer's directions. The assay utilized the peroxidatic function of CAT for determination of enzymatic activity, based on the reaction of the enzyme with methanol in the presence of an optimal concentration of H2O2. […] Purpald specifically forms a bicyclic heterocycle with aldehydes, which upon oxidation changes from colorless to a purple color. The absorbance was read at 540 nm using a spectrophotometric plate reader. Results were calculated from standard curve from known samples and by using the provided equations. From that, the enzymatic activity of CAT was derived as nmol/min/ml CAT. Samples were done in triplicate. A one-tail t-test assuming equal variance was performed to determine significance.

CAT = assay: Quantitative PCR gene expression of CAT in cbTCC cells; conditions: 24 hours, normalized to Cyclophilin A, mean ± SEM, control 1.86 ± 0.11
Cu/ZnSOD = assay: Quantitative PCR gene expression of Cu/ZnSOD in cbTCC cells; conditions: 24 hours, normalized to Cyclophilin A, mean ± SEM, control 1.11 ± 0.02
MnSOD = assay: Quantitative PCR gene expression of MnSOD in cbTCC cells; conditions: 24 hours, normalized to Cyclophilin A, mean ± SEM, control 1.28 ± 0.05
PTHrP = assay: Quantitative PCR gene expression of PTHrP in cbTCC cells; conditions: 24 hours, normalized to Cyclophilin A, mean ± SEM, control 1.35 ± 0.09
catalase (CAT) [2] = assay: Western blot analysis of catalase protein expression in cbTCC cells; conditions: 10^−9M, 24 hours, normalized to β-actin, control = 100 percent, ± standard deviation
Method: (§1) Treatments were done in at least triplicates. […] Harvested cells were homogenized, and analyzed for the production of manganese superoxide dismutase (MnSOD), copper/zinc superoxide dismutase (Cu/ZnSOD), catalase (CAT), and glutathione peroxidase (GPX). Cell lysates were collected after centrifugation, and total protein was quantitated. […] Transblotted membranes were blocked overnight at 4° C. with the addition of 5% skim milk in Tris-buffered saline (TBS). The membranes were cut at the molecular weight of 37 kD (green band) and 25 kD (pink band). The top part of the membranes were stained for CAT, GPX, and β-actin, and the bottom part for MnSOD and Cu/ZnSOD. The primary antibodies for specific proteins were used at the following dilutions: […] Secondary antibodies are their respective IgG-HRP conjugates used at 1:2000. […] CAT, MnSOD and Cu/ZnSOD, n=7; GPX, n=4. Prior to transforming data as percent of control, a one-tail paired t-test assuming equal variance was performed to determine significance.

[3] = system: manganese superoxide dismutase (MnSOD); assay: Western blot analysis of MnSOD protein expression in cbTCC cells; conditions: 10^−9M, 24 hours, normalized to β-actin, control = 100 percent, ± standard deviation
Method: as §1

[4] = system: copper/zinc superoxide dismutase (Cu/ZnSOD); assay: Western blot analysis of Cu/ZnSOD protein expression in cbTCC cells; conditions: 10^−9M, 24 hours, normalized to β-actin, control = 100 percent, ± standard deviation
Method: as §1

[5] = system: glutathione peroxidase (GPX); assay: Western blot analysis of GPX protein expression in cbTCC cells; conditions: 10^−9M, 24 hours, normalized to β-actin, control = 100 percent, ± standard deviation
Method: as §1

VDR = assay: Quantitative PCR gene expression of VDR in cbTCC cells; conditions: 24 hours, normalized to Cyclophilin A, mean ± SEM, control 2.09 ± 0.19

SMILES | Enzymatic activity of catalase (catalase (CAT) [1]; 10^−9M) [nmol/min/mL] | Enzymatic activity of catalase (catalase (CAT) [1]; 10^−7M) [nmol/min/mL] | CAT gene expression value by quantitative PCR (CAT; 10^−7 M) | CAT gene expression value by quantitative PCR (CAT; 10^−9 M) | Cu/ZnSOD gene expression value by quantitative PCR (Cu/ZnSOD; 10^−7 M) | Cu/ZnSOD gene expression value by quantitative PCR (Cu/ZnSOD; 10^−9 M) | MnSOD gene expression value by quantitative PCR (MnSOD; 10^−7 M) | MnSOD gene expression value by quantitative PCR (MnSOD; 10^−9 M) | PTHrP gene expression value by quantitative PCR (PTHrP; 10^−7 M) | PTHrP gene expression value by quantitative PCR (PTHrP; 10^−9 M) | Catalase protein expression, percent intensity of the protein band relative to the control (catalase (CAT) [2]) [%] | MnSOD protein expression, percent intensity of the protein band relative to the control [3] [%] | Cu/ZnSOD protein expression, percent intensity of the protein band relative to the control [4] [%] | GPX protein expression, percent intensity of the protein band relative to the control [5] [%] | VDR gene expression value by quantitative PCR (VDR; 10^−7 M) | VDR gene expression value by quantitative PCR (VDR; 10^−9 M)
C=C1C(=CC=C2CCCC3(C)C(C(C)CC#CC(C)(C)O)=CCC23)CC(O)CC1O (stereo not drawn) [Analog V, 1α,25-dihydroxy-16-ene-23-yne-vitamin D3] | 13.93 ± 0.53 |  |  |  |  |  |  |  |  |  |  |  |  |  |  | 
C=C1/C(=C\C=C2/CCC[C@]3(C)[C@@H]([C@H](C)CCCC(C)(C)O)CC[C@@H]23)C[C@@H](O)C[C@@H]1O [Calcitriol, 1α,25-dihydroxyvitamin D3] | 12.51 ± 0.42 | 12.24 ± 0.80 | 2.60 ± 0.11 | 2.13 ± 0.06 | 1.18 ± 0.03 | 1.16 ± 0.02 | 1.05 ± 0.03 | 1.15 ± 0.04 | 1.16 ± 0.05 | 1.36 ± 0.11 |  |  |  |  |  | 
C=C1/C(=C\C=C2/CCC[C@]3(C)[C@@H]([C@H](C)/C=C/C=C/C(O)(CC)CC)CC[C@@H]23)C[C@@H](O)C[C@@H]1O [Seocalcitol, 1α,25-dihydroxy-22,24-diene-24,26,27-trihomovitamin D] | 13.99 ± 0.99 |  | 2.66 ± 0.08 | 2.55 ± 0.13 | 1.17 ± 0.01 | 1.20 ± 0.07 | 1.11 ± 0.05 | 1.16 ± 0.05 | 1.20 ± 0.07 | 1.30 ± 0.02 | 162.68 ± 39.88 | 113.48 ± 20.56 | 101.27 ± 26.41 | 81.85 ± 37.45 | 1.99 ± 0.09 | 1.45 ± 0.10

Reference: US20130178450A1, “METHODS FOR INCREASING THE PRODUCTION OR ACTIVITY OF CATALASE” (Nestec SA, priority 2010, published 2013)
